Inconclusive results and toxic doses are left out. Cut-off read from the data, not from the text of the source: active = T/C of 150% or more; inactive = T/C below 125%.
Test system: L1210 leukemia ip in BDF1 mice, survival T/C
Test: NCI In Vivo Anticancer Drug Screen. Data for tumor model L1210 Leukemia (intraperitoneal) in B6D2F1 (BDF1) mice
Details: endpoint: mean survival time, higher = longer survival
In short: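 Ratio derived from survival: compound-dosed mice over vehicle-dosed mice, all bearing a transplantable tumor.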

[1] = dose: 100.0 mg/kg/injection, schedule: Q04DX003 (ip), vehicle: Klucel (hydroxypropylcellulose) (HPC)
[2] = dose: 100.0 mg/kg/injection, schedule: Q01DX001 (ip), vehicle: carboxymethylcellulose (CMC)
[3] = dose: 200.0 mg/kg/injection, schedule: Q01DX001 (ip), vehicle: carboxymethylcellulose (CMC)
[4] = dose: 400.0 mg/kg/injection, schedule: Q01DX001 (ip), vehicle: carboxymethylcellulose (CMC)
[5] = dose: 100.0 mg/kg/injection, schedule: Q01DX009 (ip), vehicle: Klucel (hydroxypropylcellulose) (HPC)
[6] = dose: 200.0 mg/kg/injection, schedule: Q01DX009 (ip), vehicle: Klucel (hydroxypropylcellulose) (HPC)
[7] = dose: 200.0 mg/kg/injection, schedule: Q04DX003 (ip), vehicle: Klucel (hydroxypropylcellulose) (HPC)
[8] = dose: 400.0 mg/kg/injection, schedule: Q01DX009 (ip), vehicle: Klucel (hydroxypropylcellulose) (HPC)
[9] = dose: 400.0 mg/kg/injection, schedule: Q04DX003 (ip), vehicle: Klucel (hydroxypropylcellulose) (HPC)

Measured: T/C

O=NN(CCCl)C(=O)NC1(C(=O)O)CCCC1
inactive: dose: 15.0 mg/kg/injection, schedule: Q01DX001 (ip), vehicle: saline with Tween-80 109 % of control | dose: 23.0 mg/kg/injection, schedule: Q01DX001 (ip), vehicle: saline with Tween-80 113 % of control | dose: 50.0 mg/kg/injection, schedule: Q01DX001 (ip), vehicle: Klucel (hydroxypropylcellulose) (HPC) 121 % of control | dose: 252.0 mg/kg/injection, schedule: Q01DX001 (ip), vehicle: Klucel (hydroxypropylcellulose) (HPC) 106 % of control | dose: 252.0 mg/kg/injection, schedule: Q01DX001 (ip), vehicle: carboxymethylcellulose (CMC) 89 % of control
active: dose: 75.0 mg/kg/injection, schedule: Q01DX001 (ip), vehicle: Klucel (hydroxypropylcellulose) (HPC) 172 % of control | dose: 75.0 mg/kg/injection, schedule: Q01DX001 (ip), vehicle: carboxymethylcellulose (CMC) 162 % of control | dose: 80.0 mg/kg/injection, schedule: Q01DX001 (ip), vehicle: saline with Tween-80 152 % of control | dose: 112.0 mg/kg/injection, schedule: Q01DX001 (ip), vehicle: Klucel (hydroxypropylcellulose) (HPC) 243 % of control | dose: 112.0 mg/kg/injection, schedule: Q01DX001 (ip), vehicle: carboxymethylcellulose (CMC) 168 % of control | dose: 119.0 mg/kg/injection, schedule: Q01DX001 (ip), vehicle: saline with Tween-80 252 % of control | dose: 168.0 mg/kg/injection, schedule: Q01DX001 (ip), vehicle: Klucel (hydroxypropylcellulose) (HPC) 310 % of control | dose: 168.0 mg/kg/injection, schedule: Q01DX001 (ip), vehicle: carboxymethylcellulose (CMC) 272 % of control | dose: 178.0 mg/kg/injection, schedule: Q01DX001 (ip), vehicle: saline with Tween-80 274 % of control | dose: 266.0 mg/kg/injection, schedule: Q01DX001 (ip), vehicle: saline with Tween-80 246 % of control

O=C1C=CC(=O)N1c1ccc(Br)cc1Cl
inactive: dose: 0.78 mg/kg/injection, schedule: Q04DX003 (ip), vehicle: saline 91 % of control | dose: 1.0 mg/kg/injection, schedule: Q01DX009 (ip), vehicle: saline 101 % of control | dose: 1.56 mg/kg/injection, schedule: Q04DX003 (ip), vehicle: saline 93 % of control | dose: 2.0 mg/kg/injection, schedule: Q01DX009 (ip), vehicle: saline 110 % of control | dose: 3.13 mg/kg/injection, schedule: Q04DX003 (ip), vehicle: saline 106 % of control | dose: 4.0 mg/kg/injection, schedule: Q01DX009 (ip), vehicle: saline 89 % of control | dose: 25.0 mg/kg/injection, schedule: Q04DX003 (ip), vehicle: saline with Tween-80 100 % of control | [1] 93 % of control

O=S1(=O)CCC2CCCCC2C1 (stereo not given)
inactive: dose: 6.25 mg/kg/injection, schedule: Q01DX009 (ip), vehicle: saline with Tween-80 94 % of control | dose: 12.5 mg/kg/injection, schedule: Q01DX009 (ip), vehicle: saline with Tween-80 100 % of control | dose: 25.0 mg/kg/injection, schedule: Q01DX009 (ip), vehicle: saline with Tween-80 90 % of control

Cc1ccnc(NS(=O)(=O)c2ccc(N=Nc3c(N)n(C)c(=O)n(C)c3=O)cc2)n1
inactive: [2] 98 % of control | [3] 93 % of control | [4] 95 % of control

NCCCCCCN (tested in a mixture with another compound)
inactive: dose: 3.0 mg/kg/injection, schedule: Q01DX009 (ip), vehicle: acid diluted with saline 101 % of control | dose: 3.0 mg/kg/injection, schedule: Q04DX003 (ip), vehicle: acid diluted with saline 104 % of control | dose: 6.0 mg/kg/injection, schedule: Q01DX009 (ip), vehicle: acid diluted with saline 108 % of control | dose: 6.0 mg/kg/injection, schedule: Q04DX003 (ip), vehicle: acid diluted with saline 89 % of control | dose: 12.0 mg/kg/injection, schedule: Q04DX003 (ip), vehicle: acid diluted with saline 106 % of control

CCCCCCCCCCCCBr
inactive: dose: 100.0 mg/kg/injection, schedule: Q04DX002 (ip), vehicle: saline with Tween-80 102 % of control | dose: 200.0 mg/kg/injection, schedule: Q04DX002 (ip), vehicle: saline with Tween-80 97 % of control | dose: 400.0 mg/kg/injection, schedule: Q04DX002 (ip), vehicle: saline with Tween-80 102 % of control

O=C(Oc1ccc(Cl)cc1)c1ccccc1
inactive: [5] 95 % of control | [1] 103 % of control | [6] 101 % of control | [7] 105 % of control | [8] 101 % of control | [9] 92 % of control

O=C(OCCc1ccccc1)Oc1ccccc1
inactive: dose: 100.0 mg/kg/injection, schedule: Q01DX009 (ip), vehicle: saline 115 % of control | dose: 200.0 mg/kg/injection, schedule: Q01DX009 (ip), vehicle: saline 110 % of control | dose: 400.0 mg/kg/injection, schedule: Q01DX009 (ip), vehicle: saline 103 % of control

CCN1C(=S)N(C)C(=O)/C1=C\N(C(C)=O)c1ccccc1
inactive: dose: 50.0 mg/kg/injection, schedule: Q04DX003 (ip), vehicle: Klucel (hydroxypropylcellulose) (HPC) 103 % of control | dose: 100.0 mg/kg/injection, schedule: Q01DX001 (ip), vehicle: Klucel (hydroxypropylcellulose) (HPC) 104 % of control | [1] 112 % of control | dose: 200.0 mg/kg/injection, schedule: Q01DX001 (ip), vehicle: Klucel (hydroxypropylcellulose) (HPC) 104 % of control | [7] 100 % of control | dose: 400.0 mg/kg/injection, schedule: Q01DX001 (ip), vehicle: Klucel (hydroxypropylcellulose) (HPC) 102 % of control

CC(C)CP(=S)(CC(C)C)CC(C)C
inactive: dose: 100.0 mg/kg/injection, schedule: Q01DX001 (ip), vehicle: saline with Tween-80 103 % of control | dose: 200.0 mg/kg/injection, schedule: Q01DX001 (ip), vehicle: saline with Tween-80 103 % of control | dose: 400.0 mg/kg/injection, schedule: Q01DX001 (ip), vehicle: saline with Tween-80 89 % of control

Nc1ccc2c(c1)C(=O)c1cc(N)ccc1-2
inactive: [2] 102 % of control | [1] 103 % of control | [3] 102 % of control | [7] 103 % of control | [4] 98 % of control | [9] 108 % of control

COc1cc2ccc(Cc3nccc4cc(OC)c(OC)cc34)cc2cc1OC
inactive: [5] 91 % of control | [1] 100 % of control | [6] 106 % of control | [7] 92 % of control | [8] 101 % of control | [9] 92 % of control

O=C1OCC/C1=C\NCCCCCCCCN/C=C1\CCOC1=O
inactive: dose: 100.0 mg/kg/injection, schedule: Q04DX002 (ip), vehicle: Klucel (hydroxypropylcellulose) (HPC) 97 % of control | dose: 200.0 mg/kg/injection, schedule: Q04DX002 (ip), vehicle: Klucel (hydroxypropylcellulose) (HPC) 108 % of control | dose: 400.0 mg/kg/injection, schedule: Q04DX002 (ip), vehicle: Klucel (hydroxypropylcellulose) (HPC) 97 % of control

— PubChem BioAssay AID248 (DTP/NCI, 2004)
